{"source": "patent US20260157967A1", "about": "“METHOD FOR PREPARING MEDICINES, HAVING REDUCED PRODUCTION TIME AND IMPROVED STABILITY” (DR.INB CO., priority 2021, published 2026)", "tested_on": "cancer cells (PANC-1)", "assay": "CCK8 assay of the efficiency of killing cancer cells, with or without laser irradiation (FIG. 4)", "assay_type": "cell-based", "conditions": "PANC-1, FIG. 4a, docetaxel treatment at various concentrations", "description": "1 g of polyvinylpyrrolidone (PVP, Sigma-Aldrich) was dissolved in 20 g of ultrapure water and stirred in a mixing chamber at 1500 RPM for 30 minutes to obtain an aqueous PVP solution. Subsequently, 131.7 mg of potassium hexacyanoferrate (III) trihydrate (K3Fe(CN)6·3H2O, Sigma-Aldrich) was dissolved in 20 g of ultrapure water and mixed with the aqueous PVP solution. Then, 400 μl of 1 M HCl (Sigma-Aldrich) was added to the mixing chamber and vortexed at 60 J/s. After movement through an injection pipe, the solution thus prepared was subjected to a step of allowing gas to flow at a high speed on the inner boundary of a reaction chamber and in a liquid cutting tube at an applied voltage of 30 kV, a distance of 25 cm between the reaction chamber and the end of the injection pipe, and a temperature of 140° C. As indicated by the green arrows in FIG. 1, the gas is moved toward the upper portion of the reaction chamber through a structure in which the boundary of the reaction chamber and the liquid cutting tube are at 0.29 rad and the gap of the boundary is 900 nm. As the gas passed, the prepared solution was cut into small pieces. The cut liquid received heat in the reaction chamber and the temperature thereof rose quickly compared to bulk liquid having the same total volume (40 ml) due to heat transfer within the liquid (FIG. 3). […]"}
{"smiles": "CC(=O)O[C@@]12CO[C@@H]1C[C@H](O)[C@@]1(C)C(=O)[C@H](O)C3=C(C)[C@@H](OC(=O)[C@H](O)[C@@H](NC(=O)OC(C)(C)C)c4ccccc4)C[C@@](O)([C@@H](OC(=O)c4ccccc4)[C@H]21)C3(C)C", "note": "[docetaxel]", "values": [{"measurement": "efficiency of killing cancer cells", "value": "increased the efficiency of killing cancer cells with an increase in the treatment concentration"}]}
